Results: patent publication US4883869A, “Novel beta-lactams containing amino acid substituents” (The Upjohn Company, priority 1988, dated 1989)
Where a name gives a salt, the structure may show the parent alone.

Assays:
Assay in all cases: Minimum inhibitory concentration by agar dilution, Mueller Hinton Agar (NCCLS M7-A)
Format in all cases: cell-based
Citrobacter freundii = conditions: Culture No. 3507, MHA, 35° C., 20 hours
Description: (§1) The compounds of this invention and their respective pharmaceutically acceptable salts have antibiotic activity against a variety of gram-negative bacteria including Escherichia coli, Klebsiella pneumoniae, and Pseudomonas aeruginosa. The compounds are useful for treating bacterial infections in animals, including and most preferably humans. Compounds of the invention are tested for in vitro antimicrobial activity using standard testing procedures such as the determination of minimum inhibitory concentration (MIC) by methods described in "Methods for Dilution Antimicrobial Susceptibility Tests for Bacteria That Grow Aerobically" (M7-A) Published December 1985 by the National Committee for Clinical Laboratory Standards, 771 East Lancaster Avenue, Villanova, PA 19084. Briefly, MIC values are determined in unsupplemented Mueller Hinton Agar (MHA). The compounds tested are diluted serially into molten MHA at 47° C. The agar is poured into petri dishes and allowed to harden. The various bacteria used for testing are grown overnight on MHA at 35° C. and transferred to Tryptiease Soy Broth (TSB) until a turbidity of 0.5 McFarland standard is obtained. The bacteria are diluted one to twenty in TSB and inoculated on the plates (1 μl using a Steers replicator).

Enterobacter cloacae = conditions: 20 h, 35° C.
Description: as §1

Escherichia coli = conditions: 20 h, 35° C.
Description: as §1

Klebsiella oxytoca = conditions: 20 h, 35° C.
Description: as §1

Klebsiella pneumoniae = conditions: Culture No. 58, MHA, 35° C., 20 hours
Description: as §1

Proteus vulgaris = conditions: Culture No. 9679, MHA, 35° C., 20 hours
Description: as §1

Pseudomonas aeruginosa = conditions: 20 h, 35° C.
Description: as §1

Serratia marcescens = conditions: Culture No. 6888, MHA, 35° C., 20 hours
Description: as §1

Staphylococcus aureus = conditions: MHA, 35° C., 20 hours; for MIC: Staphylococcus aureus, Culture No. 6675
Description: as §1

Streptococcus faecalis = conditions: Enterococcus faecalis; Culture No. 694; MHA, 35° C., 20 hours
Description: as §1

Streptococcus pneumoniae = conditions: Culture No. 41, MHA, 35° C., 20 hours
Description: as §1

Streptococcus pyogenes = conditions: Culture No. 152, MHA, 35° C., 20 hours
Description: as §1

SMILES | MIC (Citrobacter freundii) | MIC (Enterobacter cloacae; Culture No. 9381, MHA) | MIC (Enterobacter cloacae; Culture No. 9382, MHA) | MIC (Escherichia coli; Culture No. 311, MHA) | MIC (Escherichia coli; Culture No. 9379, MHA) | MIC (Escherichia coli; Culture No. 9380, MHA) | MIC (Klebsiella oxytoca; Culture No. 9383, MHA) | MIC (Klebsiella oxytoca; Culture No. 9384, MHA) | MIC (Klebsiella pneumoniae) | MIC (Proteus vulgaris) | MIC (Pseudomonas aeruginosa; Culture No. 6432, MHA) | MIC (Pseudomonas aeruginosa; Culture No. 6676, MHA) | MIC (Pseudomonas aeruginosa; Culture No. 9191, MHA) | MIC (Pseudomonas aeruginosa; Culture No. 30133, MHA) | MIC (Serratia marcescens) | Minimum Inhibitory Concentration (Staphylococcus aureus; Culture No. 3665) | Minimum Inhibitory Concentration (Staphylococcus aureus; Culture No. 6685) | MIC (Staphylococcus aureus) | MIC (Streptococcus faecalis) | MIC (Streptococcus pneumoniae) | other results
Nc1nc(C(=NOCC(=O)O)C(=O)NC2C(=O)N(S(=O)(=O)O)C2COC(=O)CNC=O)cs1 (mixture of isomers) [Compound 7, Cis-(±)-[2'-(2"-amino-4"-thiazolyl)-(Z)-2'-(1"-carboxymethoxy)imino]acetamido-4-[N-formylglycinoyloxymethyl]-2-oxo-1-azetidinesulfonic acid monopotassium salt] | 0.125 µg/mL | 64 µg/mL | 0.125 µg/mL | 0.06 µg/mL | 0.125 µg/mL | 0.25 µg/mL | 0.5 µg/mL | 0.06 µg/mL | 0.06 µg/mL | < 0.03 µg/mL | 8 µg/mL | 4 µg/mL | 4 µg/mL | 8 µg/mL | 0.25 µg/mL | > 128 MCG per ML | > 128 MCG per ML | > 128 µg/mL | > 128 µg/mL | 64 µg/mL | MIC (Escherichia coli; Culture No. 9451, MHA): 0.125 µg/mL; MIC (Streptococcus pyogenes): 16 µg/mL
NCC(=O)OCC1C(NC(=O)C(=NOCC(=O)O)c2csc(N)n2)C(=O)N1S(=O)(=O)O (mixture of isomers) [Compound 11, Cis-(±)-3-[[2'-(2"-amino-4"-thiazolyl)-(Z)-2'-(1'"-carboxymethoxy)imino]acetamido]-4-[N-glycinoyloxymethyl]-2-oxo-1-azetidinesulfonic acid] | 0.25 µg/mL | 64 µg/mL | 0.25 µg/mL | 0.125 µg/mL | 0.25 µg/mL | 0.25 µg/mL | 1 µg/mL | 0.125 µg/mL | 0.125 µg/mL | 0.125 µg/mL | 64 µg/mL | 8 µg/mL | 8 µg/mL | 16 µg/mL | 0.5 µg/mL | > 128 MCG per ML | > 128 MCG per ML | > 128 µg/mL | > 128 µg/mL | 128 µg/mL | MIC (Streptococcus pyogenes): 16 µg/mL
